Measured values taken from patent US20100029784A1, “NAPHTHOQUINONE COMPOSITIONS WITH ANTI-AGING, ANTI-INFLAMMATORY AND SKIN EVEN-TONING PROPERTIES” (priority 2008, published 2010).

Test system: MelanoDerm in vitro skin model (MEL-300B melanoderms)
Assay: In vitro skin model test (MelanoDerm, MatTek), skin-lightening effect by digital image quantification
Format: cell-based
Settings: for lightening / pixel density (untreated set at 1.00): 14 days, MEL-300B
Procedure: The skin-lightening effect was validated on the in vitro skin model, the MelanoDerm™ carried out by MatTek using MEL-300B melanoderms. This model is very similar in structure and function to the natural skin and has the cell types relevant in the epidermis including the melanocytes, which are responsible for the synthesis of the main pigment melanin. Further information can be found, for example, in http://www.mattek.com/pages/in_vitro_basics. The study was carried out over a period of 14 days at two concentrations of 2,3-dimethylnaphthalene-1,4-dione, 10 μM and 60 μM. 1% Kojic acid was the positive standard and untreated as negative control.
Digital image quantification was achieved by subtracting a standard background value from the pixel content of regions of identical size. The pixel content of untreated cells was set at 1.00. Treatment with topical 1% kojic acid as a positive control gave pixel density of 0.96, or 4% lightening. Treatment with 2,3-dimethylnaphthalene-1,4-dione gave pixel density of 0.66 or 34% lightening at a concentration of 10 μM and 0.38 or 62% lightening at a concentration of 60 μM.

[1] = topical 1% kojic acid, positive control

| Compound | lightening [1] | pixel density (untreated set at 1.00) [1] | effectiveness relative to the kojic acid positive standard (concentration of 10 μM vs 1% kojic acid) | lightening (concentration of 10 μM) | pixel density (untreated set at 1.00) (concentration of 10 μM) | effectiveness relative to the kojic acid positive standard (concentration of 60 μM vs 1% kojic acid) | lightening (concentration of 60 μM) | pixel density (untreated set at 1.00) (concentration of 60 μM) |
| --- | --- | --- | --- | --- | --- | --- | --- | --- |
| O=c1cc(CO)occ1O [kojic acid, Kojic acid, reference compound] | 4% | 0.96 |  |  |  |  |  |  |
| CC1=C(C)C(=O)c2ccccc2C1=O [2,3-dimethylnaphthalene-1,4-dione] |  |  | about ten times as effective | 34% | 0.66 | about fifteen times as effective | 62% | 0.38 |
